Assay results: ChEMBL document CHEMBL1155378, “Design, synthesis, and evaluation of indole compounds as novel inhibitors targeting Gp41” (Bioorg Med Chem Lett, 2010)

Columns and labels:
[1] = Displacement of C18-Aib-lucifer yellow from HIV1 envelope glycoprotein gp41 Fe(env2.0)3 by fluorescence assay; set-up: species or system Human immunodeficiency virus 1
[2] = Inhibition of HIV1 envelope glycoprotein 41-mediated membrane fusion between virus-transfected human HL2/3 cells and human TZM-bl cells after 6 hrs by fluorescence-based cell-cell fusion assay; set-up: species or system Human immunodeficiency virus 1
[3] = Cytotoxicity against human HL2/3 cells after 24 hrs by XTT proliferation assay; type: cell-based; conditions: hl2/3, 24 h
[4] = Inhibition of HIV1 envelope glycoprotein gp41; set-up: species or system Human immunodeficiency virus 1
[5] = tested on: Human immunodeficiency virus 1; experiment: Inhibition of HIV1 envelope glycoprotein gp41 by cell-cell fusion assay

Work on O=C(O)c1cccc(Cc2ccc(F)cc2)c1 yielded a Ki [1] of 548 µM and an IC50 [2] of 560 µM.

Work on Cc1ccc(C2=NNC3C=CC4C(C(F)(F)F)=CC(C(F)(F)F)=NC4N23)cc1 (stereo not given) yielded an IC50 [2] of 18 µM.

In the case of COc1ccc(Cn2ccc3ccc(Cc4cccc(C(=O)O)c4)cc32)cc1, the CC50 [3] is reported as 100 µM.

For O=C(O)c1cccc(Cc2ccc3ccn(-c4cccc(C(=O)O)c4)c3c2)c1, the Ki [1] was 107 µM and the CC50 [3] was over 400 µM.

For O=C(O)c1cccc(Cc2ccc3ccn(Cn4ccc5ccc(Cc6cccc(C(=O)O)c6)cc54)c3c2)c1, the CC50 [3] was 80 µM.

Compound COc1cccc(-n2ccc3ccc(Cc4cccc(C(=O)O)c4)cc32)c1 has a CC50 [3] of over 100 µM.

Work on COc1ccc(S(=O)(=O)O)cc1/N=N/c1c(S(=O)(=O)O)cc2cc(Nc3nc(Nc4ccccc4)nc(Nc4cc(C)c(/N=N/c5cc(S(=O)(=O)O)cc6cc(S(=O)(=O)O)cc(O)c56)cc4OC)n3)ccc2c1O yielded an IC50 [4] of 0.62 µM and an INH [5] of 4.2 µM.
